# Source: patent US10683299B2, “Pyrazolopyrazine and triazolopyrazine compounds for the treatment of infectious diseases” (Hoffmann-La Roche Inc., priority 2017, dated 2020)
# Tested on: HBV replication in HepG2.2.15 cells
# Assay: HBV inhibition assay in HepG2.2.15 cells (extracellular HBV DNA by qPCR)
# Assay type: cell-based, Hepatitis B virus
# Details: Hepatitis B virus, HepG2.2.15, 120 h, five days after compound treatment, extracellular HBV DNA in culture supernatant by qPCR, read-out: EC50 (effective compound concentration at which HBV replication was inhibited by 50%)
# Excerpt: HepG2.2.15 is a stably-transfected cell line containing the HBV genome. It is derived from the hepatoblastoma cell line Hep G2 (American Type Culture Collection, ATCC® HB-8065™) by the published procedures described in reference: M A Selles et al. Proc. Natl. Acad. Sci. USA 1987, 84, 1005-1009. The cell line was maintained in Dulbecco's modified Eagle's medium and nutrient mixture F-12 (DMEM/F-12, Gibco, Cat. #: 11320-033) supplemented with 10% fetal bovine serum (Gibco, Cat. #:10099-141), 100 U/mL penicillin, 100 μg/mL streptomycin (Gibco, Cat. #:15140-122), and 0.3 mg/mL of G418 Sulfate (Gibco, Cat. #: 10131-027).
# HepG2.2.15 cells were seeded into 96-well plates at a density of 3×10^4 cells per well in culture media of 100 μL DMEM/F-12 supplemented with 2.5% fetal bovine serum, 100 U/mL penicillin, 100 μg/mL streptomycin and cultured overnight at 37° C. The test compounds were serially half-log diluted in DMSO, then diluted 100 times in culture media. 100 μL culture media containing diluted compounds were added into the plates to reach 0.5% final concentration of DMSO in every well. Five days after compound treatment, culture supernatant was collected for further analysis.
# For quantitative PCR detection of extracellular HBV DNA, culture supernatant was processed by 500 μg/mL Proteinase K (Sigma, Cat. #:P2308) digestion at 50° C. for 1 hour. After heat inactivation of the enzyme at 95° C. for 15 minutes, the samples were subjected to HBV DNA quantification by qPCR. The effective compound concentration at which HBV replication was inhibited by 50% (EC50) was determined.
row,SMILES,EC50 [µM]
1,"C[C@H]1Cn2ncc(N3CCCS3(=O)=O)c2CN1C(=O)Nc1cc(F)c(F)c(F)c1 [Example 1, (6S)-3-(1,1-dioxo-1,2-thiazolidin-2-yl)-6-methyl-N-(3,4,5-trifluorophenyl)-6,7-dihydro-4H-pyrazolo[1,5-a]pyrazine-5-carboxamide]",0.0046
2,"C[C@H]1Cn2ncc(N3CCCS3(=O)=O)c2CN1C(=O)Nc1ccnc(Cl)c1 [Example 2, (6S)—N-(2-chloro-4-pyridyl)-3-(1,1-dioxo-1,2-thiazolidin-2-yl)-6-methyl-6,7-dihydro-4H-pyrazolo[1,5-a]pyrazine-5-carboxamide]",0.079
3,"C[C@H]1Cn2ncc(N3CCCS3(=O)=O)c2CN1C(=O)Nc1ccc(Cl)c(F)c1 [Example 3, (6S)—N-(4-chloro-3-fluoro-phenyl)-3-(1,1-dioxo-1,2-thiazolidin-2-yl)-6-methyl-6,7-dihydro-4H-pyrazolo[1,5-a]pyrazine-5-carboxamide]",0.036
4,"Cc1cc(NC(=O)N2Cc3c(N4CCCS4(=O)=O)cnn3C[C@@H]2C)ccc1F [Example 4, (6S)-3-(1,1-dioxo-1,2-thiazolidin-2-yl)-N-(4-fluoro-3-methyl-phenyl)-6-methyl-6,7-dihydro-4H-pyrazolo[1,5-a]pyrazine-5-carboxamide]",0.006
5,"C[C@H]1Cn2ncc(N3CCCS3(=O)=O)c2CN1C(=O)Nc1ccc(F)c(C#N)c1 [Example 5, (6S)—N-(3-cyano-4-fluoro-phenyl)-3-(1,1-dioxo-1,2-thiazolidin-2-yl)-6-methyl-6,7-dihydro-4H-pyrazolo[1,5-a]pyrazine-5-carboxamide]",0.014
6,"C[C@H]1Cn2ncc(N3CCCS3(=O)=O)c2CN1C(=O)Nc1ccnc(C(F)F)c1 [Example 6, (6S)—N-[2-(difluoromethyl)-4-pyridyl]-3-(1,1-dioxo-1,2-thiazolidin-2-yl)-6-methyl-6,7-dihydro-4H-pyrazolo[1,5-a]pyrazine-5-carboxamide]",0.083
7,"C[C@H]1Cn2ncc(N3CCCS3(=O)=O)c2CN1C(=O)Nc1ccc(F)c(C(F)(F)F)c1 [Example 7, (6S)-3-(1,1-dioxo-1,2-thiazolidin-2-yl)-N-[4-fluoro-3-(trifluoromethyl)phenyl]-6-methyl-6,7-dihydro-4H-pyrazolo[1,5-a]pyrazine-5-carboxamide]",0.0098
8,"C[C@H]1Cn2ncc(N3CCCS3(=O)=O)c2CN1C(=O)Nc1ccccc1F [Example 8, (6S)-3-(1,1-dioxo-1,2-thiazolidin-2-yl)-N-(2-fluorophenyl)-6-methyl-6,7-dihydro-4H-pyrazolo[1,5-a]pyrazine-5-carboxamide]",0.3
9,"C[C@H]1Cn2ncc(N3CCCS3(=O)=O)c2CN1C(=O)Nc1ccc2ncsc2c1 [Example 9, (6S)—N-(1,3-benzothiazol-6-yl)-3-(1,1-dioxo-1,2-thiazolidin-2-yl)-6-methyl-6,7-dihydro-4H-pyrazolo[1,5-a]pyrazine-5-carboxamide]",0.26
10,"C[C@H]1Cn2ncc(N3CCCS3(=O)=O)c2CN1C(=O)Nc1ccsc1 [Example 10, (6S)-3-(1,1-dioxo-1,2-thiazolidin-2-yl)-6-methyl-N-(3-thienyl)-6,7-dihydro-4H-pyrazolo[1,5-a]pyrazine-5-carboxamide]",0.57
11,"C[C@H]1Cn2ncc(N3CCCS3(=O)=O)c2CN1C(=O)NCc1ccccc1 [Example 11, (6S)—N-benzyl-3-(1,1-dioxo-1,2-thiazolidin-2-yl)-6-methyl-6,7-dihydro-4H-pyrazolo[1,5-a]pyrazine-5-carboxamide]",0.11
12,"C[C@H]1Cn2ncc(N3CC4COCCN4S3(=O)=O)c2CN1C(=O)Nc1cc(F)c(F)c(F)c1 (stereo partly drawn) [Example 12, (6S)-3-(1,1-dioxo-3a,4,6,7-tetrahydro-3H-[1,2,5]thiadiazolo[3,2-c][1,4]oxazin-2-yl)-6-methyl-N-(3,4,5-trifluorophenyl)-6,7-dihydro-4H-pyrazolo[1,5-a]pyrazine-5-carboxamide]",0.04
13,"C[C@H]1Cn2ncc(N3CCN(C(=O)OCc4ccccc4)CS3(=O)=O)c2CN1C(=O)Nc1cc(F)c(F)c(F)c1 [Example 13, Benzyl 2-[(6S)-6-methyl-5-[(3,4,5-trifluorophenyl)carbamoyl]-6,7-dihydro-4H-pyrazolo[1,5-a]pyrazin-3-yl]-1,1-dioxo-1,2,5-thiadiazinane-5-carboxylate]",0.052
14,"C[C@H]1Cn2ncc(N3CC4CCC(=O)N4CS3(=O)=O)c2CN1C(=O)Nc1cc(F)c(F)c(F)c1 (stereo partly drawn) [Example 14, (6S)-6-methyl-N-(3,4,5-trifluorophenyl)-3-(3,3,6-trioxo-4,7,8,8a-tetrahydro-1H-pyrrolo[2,1-d][1,2,5]thiadiazin-2-yl)-6,7-dihydro-4H-pyrazolo[1,5-a]pyrazine-5-carboxamide]",0.028
15,"CC(=O)N1CCN(c2cnn3c2CN(C(=O)Nc2cc(F)c(F)c(F)c2)[C@@H](C)C3)S(=O)(=O)C1 [Example 15, (6S)-3-(5-acetyl-1,1-dioxo-1,2,5-thiadiazinan-2-yl)-6-methyl-N-(3,4,5-trifluorophenyl)-6,7-dihydro-4H-pyrazolo[1,5-a]pyrazine-5-carboxamide]",0.026
16,"CC1CCS(=O)(=O)N1c1cnn2c1CN(C(=O)Nc1cc(F)c(F)c(F)c1)[C@@H](C)C2 (stereo partly drawn) [Example 16, (6S)-6-methyl-3-(3-methyl-1,1-dioxo-1,2-thiazolidin-2-yl)-N-(3,4,5-trifluorophenyl)-6,7-dihydro-4H-pyrazolo[1,5-a]pyrazine-5-carboxamide]",0.009
17,"C[C@H]1Cn2ncc(N3CCC[S+]3[O-])c2CN1C(=O)Nc1cc(F)c(F)c(F)c1 (stereo partly drawn) [Example 17, (6S)-6-methyl-3-(1-oxo-1,2-thiazolidin-2-yl)-N-(3,4,5-trifluorophenyl)-6,7-dihydro-4H-pyrazolo[1,5-a]pyrazine-5-carboxamide]",0.086
18,"C[C@H]1Cn2ncc(N3CC(O)CS3(=O)=O)c2CN1C(=O)Nc1cc(F)c(F)c(F)c1 (stereo partly drawn) [Example 18, (6S)-3-(4-hydroxy-1,1-dioxo-1,2-thiazolidin-2-yl)-6-methyl-N-(3,4,5-trifluorophenyl)-6,7-dihydro-4H-pyrazolo[1,5-a]pyrazine-5-carboxamide]",0.012
19,"C[C@H]1Cn2ncc(N3CCNS3(=O)=O)c2CN1C(=O)Nc1cc(F)c(F)c(F)c1 [Example 19, (6S)-3-(1,1-dioxo-1,2,5-thiadiazolidin-2-yl)-6-methyl-N-(3,4,5-trifluorophenyl)-6,7-dihydro-4H-pyrazolo[1,5-a]pyrazine-5-carboxamide]",0.014
20,"C[C@H]1Cn2ncc(N3CCN(C)S3(=O)=O)c2CN1C(=O)Nc1cc(F)c(F)c(F)c1 [Example 20, (6S)-6-methyl-3-(5-methyl-1,1-dioxo-1,2,5-thiadiazolidin-2-yl)-N-(3,4,5-trifluorophenyl)-6,7-dihydro-4H-pyrazolo[1,5-a]pyrazine-5-carboxamide]",0.017
21,"C[C@H]1Cn2ncc(N3[C@@H](C)CS3(=O)=O)c2CN1C(=O)Nc1cc(F)c(F)c(F)c1 [Example 21, (6S)-6-methyl-3-[(3S)-3-methyl-1,1-dioxo-thiazetidin-2-yl]-N-(3,4,5-trifluorophenyl)-6,7-dihydro-4H-pyrazolo[1,5-a]pyrazine-5-carboxamide]",0.046
22,"C[C@H]1Cn2ncc(N3[C@@H](C)CNS3(=O)=O)c2CN1C(=O)Nc1cc(F)c(F)c(F)c1 [Example 22, (6S)-6-methyl-3-[(3S)-3-methyl-1,1-dioxo-1,2,5-thiadiazolidin-2-yl]-N-(3,4,5-trifluorophenyl)-6,7-dihydro-4H-pyrazolo[1,5-a]pyrazine-5-carboxamide]",0.027
23,"CC1NS(=O)(=O)N(c2cnn3c2CN(C(=O)Nc2cc(F)c(F)c(F)c2)[C@@H](C)C3)[C@H]1C (stereo partly drawn) [Example 23, (6S)-3-[(3S)-3,4-dimethyl-1,1-dioxo-1,2,5-thiadiazolidin-2-yl]-6-methyl-N-(3,4,5-trifluorophenyl)-6,7-dihydro-4H-pyrazolo[1,5-a]pyrazine-5-carboxamide]",0.052
24,"C[C@H]1Cn2ncc(N3CCOCS3(=O)=O)c2CN1C(=O)Nc1cc(F)c(F)c(F)c1 [Example 24, (6S)-3-(3,3-dioxo-1,3,4-oxathiazinan-4-yl)-6-methyl-N-(3,4,5-trifluorophenyl)-6,7-dihydro-4H-pyrazolo[1,5-a]pyrazine-5-carboxamide]",0.011

# Same assay, conditions: five days after compound treatment, extracellular HBV DNA in culture supernatant by qPCR, read-out: EC50 (effective compound concentration at which HBV replication was inhibited by 50%)
row,SMILES,EC50 [µM]
1,"CC1Cn2nnc(N3CCCS3(=O)=O)c2CN1C(=O)Nc1cc(F)c(F)c(F)c1 (single isomer, unassigned) [Example 33-1, 3-(1,1-dioxo-1,2-thiazolidin-2-yl)-6-methyl-N-(3,4,5-trifluorophenyl)-6,7-dihydro-4H-triazolo[1,5-a]pyrazine-5-carboxamide]",0.024
2,"CC1Cn2nnc(N3CCCS3(=O)=O)c2CN1C(=O)Nc1cc(F)c(F)c(F)c1 (single isomer, unassigned) [Example 33-2, 3-(1,1-dioxo-1,2-thiazolidin-2-yl)-6-methyl-N-(3,4,5-trifluorophenyl)-6,7-dihydro-4H-triazolo[1,5-a]pyrazine-5-carboxamide]",0.41
